Test system: transformation of 5-aminolevulinic acid to protoporphyrin IX (PpIX)
Test: FluoDerm fluorescence after 940 nm photopreparation 24, 48, 72 h before 5-ALA, 4 subjects (Example 12)
Format: in vivo, human
Protocol: To obtain greater statistical power and investigate even longer term effects, the above study was repeated on other subjects. Below, the results or comparison between the D50 and CW protocols are shown for 4 subjects. Irradiation was performed in accordance with the pattern of FIG. 44, with measurements taken 24, 48 and 72 hours after pre-treatment with D50 and CW, instead of 8-14, 24-29 and 50-53.
More specifically, delineated treatment areas were drawn on each subject's back. These spaces had to be close enough together to enable simultaneous irradiation downstream in the experiment. Areas of each patient's back were then irradiated according to the predetermined photopreparation treatment parameter at the appropriate pre-5-ALA application and activation time. In this study, two light pulsing options were compared—pulsed versus continuous. Both options were set at 940 nm. The time set between the photopreparation treatment and the 5-ALA application was the other variable tested. […] Following the appropriately timed photopreparation treatment of the correct back skin area, 20% 5-aminolevulinic acid (Levulan Kerastick, Dusa, Wilmington, USA) was applied to the patient's back. After the topical application, an incubation time of 3 hours was set to optimize the transformation of the medication to protoporphyrin IX (PpIX). Finally, using the Fluoroderm device, the fluorescence of each subject's back areas was measured. The recorded data was statistically analyzed.
Besides the 20% 5-aminolevulinic acid (Levulan Kerastick, Dusa, Wilmington, USA) used as the photosensitizer and the FluoDerm (Dia-Medico, Denmark) to quantify the fluorescence of each patient's back, a prototype able to irradiate the back skin areas with pulsed (D50 pulsing condition) and continuous wavelength (CW) light at 940 nm was built. This machine was assembled at RoseLab Skin Optics Research Laboratory (Montreal, Canada). The D50-940 nm condition was made up of 940 nm light with a pulsing pattern consisting of a 50% duty cycle delivered in the repeating pattern (in μseconds where PD, PI, and PTI mean pulse duration, pulse interval, and pulse train interval, respectively) of: PD 500 on, PI 150 off, PD 500 on, PI 150 off, PD 500 on and PTI 1550 off (FIG. 3). The irradiance delivered for all conditions (D50 and CW) was 75 mW/cm^2 and the fluence delivered for all conditions was 67.5 J/cm^2 (940 nm LED treatment duration D50=30 min and CW=15 min).
The FluoDerm measured each tested condition. These measurements were then compared to the control (only 5-ALA without photopreparation). The means of these proportional changes were calculated. The final results were categorized by every photopreparation condition (72, 48 and 24 hours pre-treatment). A 95% confidence interval was calculated for each mean.
The data is analyzed and presented as X-fold changes (or differences) as compared to the just 5-ALA control below. Higher number show a higher effect of pre-treatment with IR radiation.

**Q.** Which “X-fold change of fluorescence as compared to the just 5-ALA control, Mean” value (shortened to “X-fold change of fluorescence”) (24 hours pre-treatment, CW-940, 75 mW/cm2, 67.5 J/cm2) does the source give for `NCC(=O)CCC(=O)O` [5-ALA, 5-aminolevulinic acid] here?
**A.** Its value is 1.18 fold.

**Q.** And the “X-fold change of fluorescence” value (24 hours pre-treatment, D50-940, 75 mW/cm2, 67.5 J/cm2)?
**A.** The value was 1.27 fold.

**Q.** And the “X-fold change of fluorescence” value (48 hours pre-treatment, CW-940, 75 mW/cm2, 67.5 J/cm2)?
**A.** Its value is 1.34 fold.

**Q.** And the “X-fold change of fluorescence” value (48 hours pre-treatment, D50-940, 75 mW/cm2, 67.5 J/cm2)?
**A.** The value was 1.08 fold.

**Q.** What about the “X-fold change of fluorescence” value (72 hours pre-treatment, CW-940, 75 mW/cm2, 67.5 J/cm2) of the same compound?
**A.** Its value is 1.05 fold.

**Q.** And the “X-fold change of fluorescence” value (72 hours pre-treatment, D50-940, 75 mW/cm2, 67.5 J/cm2)?
**A.** Its value is 0.94 fold.

From patent US10632324B2, “Method for the treatment of skin tissues” (9127-4910 Quebec Inc., priority 2017, dated 2020)
